In experiment [1] the target is Cyclin-dependent kinase 3 (Homo sapiens, UniProt Q00526).
Experiment [2] deals with LIM domain kinase 1 (Homo sapiens, UniProt P53667).
In experiment [3] the target is T1, Myotonin-protein kinase (Homo sapiens, UniProt Q09013).
T1 sequence (Q09013 whole entry): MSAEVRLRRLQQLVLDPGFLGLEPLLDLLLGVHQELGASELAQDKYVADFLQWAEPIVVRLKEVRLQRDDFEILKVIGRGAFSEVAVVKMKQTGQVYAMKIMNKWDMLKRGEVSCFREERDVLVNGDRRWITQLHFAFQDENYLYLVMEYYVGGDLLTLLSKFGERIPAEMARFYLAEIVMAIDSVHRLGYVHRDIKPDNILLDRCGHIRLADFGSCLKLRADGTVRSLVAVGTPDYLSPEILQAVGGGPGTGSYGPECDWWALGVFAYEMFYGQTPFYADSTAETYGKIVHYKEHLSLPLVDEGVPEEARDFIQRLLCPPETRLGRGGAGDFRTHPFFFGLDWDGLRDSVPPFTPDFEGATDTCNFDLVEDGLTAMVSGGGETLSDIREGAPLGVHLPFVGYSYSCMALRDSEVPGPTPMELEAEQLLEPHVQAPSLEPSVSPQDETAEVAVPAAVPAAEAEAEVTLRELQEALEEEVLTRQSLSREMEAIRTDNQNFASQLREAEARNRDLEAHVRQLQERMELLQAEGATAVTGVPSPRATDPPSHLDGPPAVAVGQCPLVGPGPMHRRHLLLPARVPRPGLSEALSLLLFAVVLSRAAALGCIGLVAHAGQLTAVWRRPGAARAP

Experiment [4] concerns the target Receptor-interacting serine/threonine-protein kinase 2 (Homo sapiens, UniProt O43353).
Experiment [5] deals with BMP-2-inducible protein kinase (Homo sapiens, UniProt Q9NSY1).
The target in experiment [6] is Mitogen-activated protein kinase kinase kinase 9 (Homo sapiens, UniProt P80192).
Experiment [7] addresses Cyclin-dependent kinase 2 (Homo sapiens, UniProt P24941).
Experiment [8] deals with TRAF2 and NCK-interacting protein kinase (Homo sapiens, UniProt Q9UKE5).
Sequence of TRAF2 and NCK-interacting protein kinase (Q9UKE5 whole entry): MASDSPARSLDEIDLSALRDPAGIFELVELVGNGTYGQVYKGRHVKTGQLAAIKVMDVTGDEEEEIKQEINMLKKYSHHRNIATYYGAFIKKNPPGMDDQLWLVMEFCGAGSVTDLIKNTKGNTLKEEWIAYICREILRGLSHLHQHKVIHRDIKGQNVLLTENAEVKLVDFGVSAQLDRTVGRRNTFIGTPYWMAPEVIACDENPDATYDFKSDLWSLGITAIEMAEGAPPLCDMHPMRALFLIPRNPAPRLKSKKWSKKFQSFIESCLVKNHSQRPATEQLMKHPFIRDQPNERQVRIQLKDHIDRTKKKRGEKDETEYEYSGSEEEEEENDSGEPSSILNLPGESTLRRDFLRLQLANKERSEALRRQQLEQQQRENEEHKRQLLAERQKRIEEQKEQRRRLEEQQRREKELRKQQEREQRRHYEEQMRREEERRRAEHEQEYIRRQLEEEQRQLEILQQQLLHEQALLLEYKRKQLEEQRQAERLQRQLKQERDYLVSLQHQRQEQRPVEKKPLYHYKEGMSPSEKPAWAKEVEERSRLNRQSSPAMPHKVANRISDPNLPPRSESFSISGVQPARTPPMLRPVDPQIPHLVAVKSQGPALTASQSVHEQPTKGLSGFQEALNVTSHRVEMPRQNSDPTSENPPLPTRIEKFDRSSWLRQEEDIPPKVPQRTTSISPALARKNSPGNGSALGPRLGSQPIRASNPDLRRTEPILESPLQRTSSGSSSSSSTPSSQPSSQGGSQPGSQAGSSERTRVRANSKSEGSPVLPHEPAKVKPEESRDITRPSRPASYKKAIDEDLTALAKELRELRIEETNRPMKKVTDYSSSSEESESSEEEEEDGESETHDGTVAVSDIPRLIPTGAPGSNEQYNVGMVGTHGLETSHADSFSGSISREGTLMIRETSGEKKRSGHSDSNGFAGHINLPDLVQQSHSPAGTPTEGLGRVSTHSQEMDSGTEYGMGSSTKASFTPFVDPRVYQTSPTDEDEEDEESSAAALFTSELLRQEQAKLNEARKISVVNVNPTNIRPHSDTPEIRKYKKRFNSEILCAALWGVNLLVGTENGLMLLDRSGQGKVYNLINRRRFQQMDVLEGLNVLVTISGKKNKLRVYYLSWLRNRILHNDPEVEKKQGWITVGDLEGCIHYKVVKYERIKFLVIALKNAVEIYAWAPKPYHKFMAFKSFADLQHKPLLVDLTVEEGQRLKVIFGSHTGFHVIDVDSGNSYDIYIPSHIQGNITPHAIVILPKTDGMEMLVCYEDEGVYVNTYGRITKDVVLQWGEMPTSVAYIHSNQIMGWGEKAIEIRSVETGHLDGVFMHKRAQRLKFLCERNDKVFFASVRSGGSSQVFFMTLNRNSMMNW
For experiment [9], the target named is Calcium/calmodulin-dependent protein kinase type II subunit delta (Homo sapiens, UniProt Q13557).
Sequence of Calcium/calmodulin-dependent protein kinase type II subunit delta (Q13557 whole entry, the tested form may be a part): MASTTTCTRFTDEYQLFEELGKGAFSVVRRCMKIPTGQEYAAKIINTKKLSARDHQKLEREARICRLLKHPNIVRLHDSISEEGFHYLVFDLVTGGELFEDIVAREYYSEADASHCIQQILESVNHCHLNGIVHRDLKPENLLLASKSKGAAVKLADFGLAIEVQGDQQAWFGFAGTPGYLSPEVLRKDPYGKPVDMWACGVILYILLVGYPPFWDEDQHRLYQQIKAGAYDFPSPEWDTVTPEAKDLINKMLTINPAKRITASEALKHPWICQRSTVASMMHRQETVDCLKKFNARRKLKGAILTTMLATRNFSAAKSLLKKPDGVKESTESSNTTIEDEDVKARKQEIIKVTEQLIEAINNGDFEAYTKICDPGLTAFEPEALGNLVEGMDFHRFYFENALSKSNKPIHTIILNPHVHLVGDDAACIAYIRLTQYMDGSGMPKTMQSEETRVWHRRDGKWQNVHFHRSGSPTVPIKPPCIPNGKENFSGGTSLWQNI
In experiment [10] the target is Epithelial discoidin domain-containing receptor 1 (Homo sapiens, UniProt Q08345).
Experiment [11] deals with Protein kinase C delta type (Homo sapiens, UniProt Q05655).
Sequence of Protein kinase C delta type (Q05655 whole entry): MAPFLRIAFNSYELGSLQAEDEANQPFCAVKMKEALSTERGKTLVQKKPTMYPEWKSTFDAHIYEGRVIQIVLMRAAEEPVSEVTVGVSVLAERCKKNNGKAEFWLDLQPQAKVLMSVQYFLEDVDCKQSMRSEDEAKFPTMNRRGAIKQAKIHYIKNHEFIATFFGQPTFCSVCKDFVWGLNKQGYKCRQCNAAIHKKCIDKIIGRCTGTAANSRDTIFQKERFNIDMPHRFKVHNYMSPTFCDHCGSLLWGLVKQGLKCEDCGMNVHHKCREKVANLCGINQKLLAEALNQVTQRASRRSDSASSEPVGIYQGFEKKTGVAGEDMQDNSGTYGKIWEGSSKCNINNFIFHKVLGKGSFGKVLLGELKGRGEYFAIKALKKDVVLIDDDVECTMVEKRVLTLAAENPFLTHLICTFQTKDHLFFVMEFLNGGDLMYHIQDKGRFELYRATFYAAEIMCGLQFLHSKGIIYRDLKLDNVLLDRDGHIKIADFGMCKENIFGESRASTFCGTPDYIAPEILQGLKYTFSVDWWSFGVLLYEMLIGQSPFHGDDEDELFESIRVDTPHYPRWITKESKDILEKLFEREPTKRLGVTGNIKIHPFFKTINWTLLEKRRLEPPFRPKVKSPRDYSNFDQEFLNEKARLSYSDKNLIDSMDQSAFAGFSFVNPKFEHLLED
The target of experiment [12] is Serine/threonine-protein kinase 16 (Homo sapiens, UniProt O75716).
Sequence of Serine/threonine-protein kinase 16 (O75716 whole entry, the tested form may be a part): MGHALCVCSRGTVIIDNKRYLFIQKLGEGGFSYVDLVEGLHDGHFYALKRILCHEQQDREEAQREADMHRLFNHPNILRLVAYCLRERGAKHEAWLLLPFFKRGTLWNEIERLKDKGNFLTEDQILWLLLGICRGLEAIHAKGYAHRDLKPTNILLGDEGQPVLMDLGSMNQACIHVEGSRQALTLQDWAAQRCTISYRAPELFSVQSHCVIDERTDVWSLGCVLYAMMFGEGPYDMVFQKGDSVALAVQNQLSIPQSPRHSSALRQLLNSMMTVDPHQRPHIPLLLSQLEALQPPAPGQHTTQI
In experiment [13] the target is T2, Discoidin domain-containing receptor 2 (Homo sapiens, UniProt Q16832).
T2 sequence (Q16832 whole entry): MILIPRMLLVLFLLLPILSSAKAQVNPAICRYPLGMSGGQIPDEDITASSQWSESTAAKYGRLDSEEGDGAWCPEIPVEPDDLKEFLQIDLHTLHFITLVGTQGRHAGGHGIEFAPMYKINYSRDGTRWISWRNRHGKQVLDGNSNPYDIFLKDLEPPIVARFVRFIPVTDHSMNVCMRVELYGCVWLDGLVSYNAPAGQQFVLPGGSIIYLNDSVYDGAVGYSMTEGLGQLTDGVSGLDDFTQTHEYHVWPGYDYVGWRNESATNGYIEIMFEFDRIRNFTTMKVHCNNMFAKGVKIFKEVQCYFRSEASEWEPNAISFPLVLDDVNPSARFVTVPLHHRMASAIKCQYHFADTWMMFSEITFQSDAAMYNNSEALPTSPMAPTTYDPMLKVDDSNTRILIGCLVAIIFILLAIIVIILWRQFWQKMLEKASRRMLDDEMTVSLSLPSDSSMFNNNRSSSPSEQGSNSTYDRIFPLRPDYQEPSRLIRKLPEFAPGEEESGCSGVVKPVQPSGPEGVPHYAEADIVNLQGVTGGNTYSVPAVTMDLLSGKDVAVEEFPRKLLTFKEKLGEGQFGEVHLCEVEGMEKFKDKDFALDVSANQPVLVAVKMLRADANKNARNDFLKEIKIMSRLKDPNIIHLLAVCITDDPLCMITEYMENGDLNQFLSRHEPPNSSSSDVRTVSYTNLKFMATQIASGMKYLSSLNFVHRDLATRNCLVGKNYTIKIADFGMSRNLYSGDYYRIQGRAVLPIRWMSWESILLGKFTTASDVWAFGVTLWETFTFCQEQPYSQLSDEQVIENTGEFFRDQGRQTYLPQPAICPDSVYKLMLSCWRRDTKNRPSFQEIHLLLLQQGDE

Experiment [14] addresses Phosphorylase b kinase gamma catalytic chain, skeletal muscle/heart isoform (Homo sapiens, UniProt Q16816).
In experiment [15] the target is Ribosomal protein S6 kinase alpha-5 (Homo sapiens, UniProt O75582).

The record followed here is ChEMBL document CHEMBL1150977, “A quantitative analysis of kinase inhibitor selectivity” (Nat Biotechnol, 2008).

The structures appear in SMILES notation.

Sequence of Cyclin-dependent kinase 3 (Q00526 whole entry, the tested form may be a part): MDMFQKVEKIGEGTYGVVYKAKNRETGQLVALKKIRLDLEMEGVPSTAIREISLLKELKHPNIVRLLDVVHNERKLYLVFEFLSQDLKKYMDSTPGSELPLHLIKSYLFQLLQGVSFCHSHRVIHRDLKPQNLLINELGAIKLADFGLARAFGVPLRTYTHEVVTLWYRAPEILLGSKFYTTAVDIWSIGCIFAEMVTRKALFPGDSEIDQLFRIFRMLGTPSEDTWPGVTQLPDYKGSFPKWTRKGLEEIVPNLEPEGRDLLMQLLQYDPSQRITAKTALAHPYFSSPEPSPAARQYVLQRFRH
Sequence of LIM domain kinase 1 (P53667 whole entry, the tested form may be a part): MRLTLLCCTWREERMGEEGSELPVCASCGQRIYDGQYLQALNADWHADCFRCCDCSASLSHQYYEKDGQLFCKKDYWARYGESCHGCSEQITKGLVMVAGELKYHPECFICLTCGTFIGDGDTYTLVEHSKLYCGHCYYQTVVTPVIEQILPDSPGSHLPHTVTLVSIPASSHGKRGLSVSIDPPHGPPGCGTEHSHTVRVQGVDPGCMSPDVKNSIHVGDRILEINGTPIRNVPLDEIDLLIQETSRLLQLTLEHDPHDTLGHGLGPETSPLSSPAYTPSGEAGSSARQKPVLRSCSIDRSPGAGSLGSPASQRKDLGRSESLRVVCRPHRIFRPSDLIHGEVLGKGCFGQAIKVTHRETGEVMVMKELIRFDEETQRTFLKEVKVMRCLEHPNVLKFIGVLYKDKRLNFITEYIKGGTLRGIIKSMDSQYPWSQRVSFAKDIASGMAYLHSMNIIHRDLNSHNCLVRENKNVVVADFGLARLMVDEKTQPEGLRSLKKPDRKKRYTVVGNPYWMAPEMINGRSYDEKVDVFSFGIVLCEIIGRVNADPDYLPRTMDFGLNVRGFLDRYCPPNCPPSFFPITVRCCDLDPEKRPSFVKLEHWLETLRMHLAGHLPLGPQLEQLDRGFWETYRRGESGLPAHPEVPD
Sequence of Receptor-interacting serine/threonine-protein kinase 2 (O43353 whole entry): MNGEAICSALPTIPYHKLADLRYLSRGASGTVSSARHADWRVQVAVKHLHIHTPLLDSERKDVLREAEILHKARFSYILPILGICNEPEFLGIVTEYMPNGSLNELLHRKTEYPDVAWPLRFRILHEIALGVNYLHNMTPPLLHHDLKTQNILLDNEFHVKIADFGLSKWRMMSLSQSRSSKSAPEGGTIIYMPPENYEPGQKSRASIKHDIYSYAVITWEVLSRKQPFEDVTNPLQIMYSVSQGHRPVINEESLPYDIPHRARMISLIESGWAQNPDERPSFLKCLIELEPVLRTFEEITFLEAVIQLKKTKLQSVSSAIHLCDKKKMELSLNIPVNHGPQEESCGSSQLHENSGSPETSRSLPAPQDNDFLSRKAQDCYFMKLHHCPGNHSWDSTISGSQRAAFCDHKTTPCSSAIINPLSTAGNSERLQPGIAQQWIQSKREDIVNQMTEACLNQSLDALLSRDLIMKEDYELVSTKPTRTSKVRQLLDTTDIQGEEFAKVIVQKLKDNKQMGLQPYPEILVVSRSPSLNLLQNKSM
Sequence of Phosphorylase b kinase gamma catalytic chain, skeletal muscle/heart isoform (Q16816 whole entry, canonical isoform): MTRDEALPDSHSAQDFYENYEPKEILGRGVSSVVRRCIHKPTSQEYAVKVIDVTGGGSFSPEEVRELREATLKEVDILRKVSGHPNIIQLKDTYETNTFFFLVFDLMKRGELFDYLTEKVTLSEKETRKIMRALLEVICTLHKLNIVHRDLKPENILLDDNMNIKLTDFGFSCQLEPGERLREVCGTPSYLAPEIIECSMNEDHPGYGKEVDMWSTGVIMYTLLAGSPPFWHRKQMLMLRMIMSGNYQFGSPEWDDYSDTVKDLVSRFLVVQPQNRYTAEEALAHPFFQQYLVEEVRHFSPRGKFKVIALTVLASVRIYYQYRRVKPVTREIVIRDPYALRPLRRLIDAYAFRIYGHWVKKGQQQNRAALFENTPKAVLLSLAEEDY

With `CCN1CCN(Cc2ccc(NC(=O)Nc3ccc(Oc4cc(NC)ncn4)cc3)cc2C(F)(F)F)CC1` [AST-487], the dissociation constant (Kd) (in general, the free concentration of one partner at which half of the binding sites on the other are occupied at equilibrium, for simple one-to-one binding) in experiment [1] was 0.082 µM; in experiment [2], over 10 µM.
Consider `COCC(=O)NC/C=C/c1ccc2ncnc(Nc3ccc(Oc4ccc(C)nc4)c(C)c3)c2c1` [CP-724714], for which the Kd in [3], in experiment [4], in experiment [5], in [6], in experiment [7] and in experiment [8] was over 10 µM in each case. Moreover, the Kd in [9], in experiment [10], in experiment [11], in experiment [12], in [13] and in experiment [1] was over 10 µM each time. Further, the Kd in experiment [14], in experiment [2] and in experiment [15] was over 10 µM throughout.
`Nc1nc(Nc2ccc(S(N)(=O)=O)cc2)nn1C(=O)c1c(F)cccc1F` [JNJ-7706621]: the Kd was over 10 µM in [4]; 3.6 µM in [6]; over 10 µM in experiment [8]; over 10 µM in [9]; over 10 µM in experiment [10]; 4.5 µM in experiment [11]. For the same compound, the Kd in experiment [13], in experiment [14] and in experiment [15] was over 10 µM each time.
For `CCOc1cc2ncc(C#N)c(Nc3ccc(F)c(Cl)c3)c2cc1NC(=O)/C=C/CN(C)C` [PELITINIB], the Kd in experiment [3] was 0.059 µM; in [4] it was over 10 µM; in experiment [6], over 10 µM; in experiment [7], over 10 µM; in experiment [9], over 10 µM; in experiment [10], over 10 µM. In addition, the Kd in [12], in experiment [13], in experiment [1], in experiment [2] and in experiment [15] was over 10 µM throughout.
As for `Oc1ccc(-c2nc(-c3ccncc3)c(-c3ccc(F)cc3)[nH]2)cc1` [SB-202190], the Kd was over 10 µM in experiment [3]; over 10 µM in experiment [5]; over 10 µM in experiment [6]; over 10 µM in experiment [7]; 1.6 µM in experiment [8]; over 10 µM in experiment [9]. Also, the Kd was over 10 µM in experiment [11]; over 10 µM in experiment [12]; 1.6 µM in [13]; over 10 µM in experiment [1]; over 10 µM in experiment [14]; over 10 µM in [2]. In [15], this compound returned a dissociation constant (Kd) of over 10 µM.
On to `NC(=O)c1ccc(-c2nc(-c3ccc4c(c3)OCO4)c(-c3ccccn3)[nH]2)cc1` [SB-431542], for which the Kd is over 10 µM in experiment [3]; 3.4 µM in experiment [4]; over 10 µM in [5]; over 10 µM in experiment [6]; over 10 µM in [8]; over 10 µM in experiment [9]. The Kd in [10], in experiment [11], in experiment [12], in [13], in [1] and in experiment [14] was over 10 µM each time. The Kd in experiment [2] and in [15] was over 10 µM throughout.
